Calls of active or inactive are those of the source. No cut-off for these calls is given here.
Tests used:
[1] = biological target: T1, Neutral cholesterol ester hydrolase 1 (Mus musculus) (UniProt Q8BLF1); assay: Displacement of FP-rhodamine from KIAA1363 in mouse brain membrane fraction preincubated for 30 mins followed by FP-rhodhamine addition for 10 mins by Activity-Based Protein Profiling analysis; assay type: cell membranes; conditions: time 40.0 min
T1 sequence (whole entry): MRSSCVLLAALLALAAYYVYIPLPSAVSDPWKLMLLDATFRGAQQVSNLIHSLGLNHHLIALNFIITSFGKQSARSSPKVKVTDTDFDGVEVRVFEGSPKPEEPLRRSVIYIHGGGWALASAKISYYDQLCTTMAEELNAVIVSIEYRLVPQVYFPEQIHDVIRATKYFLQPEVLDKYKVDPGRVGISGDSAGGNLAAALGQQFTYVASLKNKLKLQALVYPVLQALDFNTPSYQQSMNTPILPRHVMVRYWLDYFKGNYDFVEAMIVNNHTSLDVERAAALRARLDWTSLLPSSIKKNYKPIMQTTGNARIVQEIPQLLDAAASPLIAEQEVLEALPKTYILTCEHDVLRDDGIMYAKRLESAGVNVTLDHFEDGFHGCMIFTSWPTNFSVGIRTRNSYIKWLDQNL

[2] = biological target: T2, Lysophosphatidylserine lipase ABHD12 (Mus musculus) (UniProt Q99LR1); assay: Displacement of FP-rhodamine from ABHD12 in mouse brain membrane fraction preincubated for 30 mins followed by FP-rhodhamine addition for 10 mins by Activity-Based Protein Profiling analysis; assay type: cell membranes; conditions: time 40.0 min
T2 sequence (whole entry): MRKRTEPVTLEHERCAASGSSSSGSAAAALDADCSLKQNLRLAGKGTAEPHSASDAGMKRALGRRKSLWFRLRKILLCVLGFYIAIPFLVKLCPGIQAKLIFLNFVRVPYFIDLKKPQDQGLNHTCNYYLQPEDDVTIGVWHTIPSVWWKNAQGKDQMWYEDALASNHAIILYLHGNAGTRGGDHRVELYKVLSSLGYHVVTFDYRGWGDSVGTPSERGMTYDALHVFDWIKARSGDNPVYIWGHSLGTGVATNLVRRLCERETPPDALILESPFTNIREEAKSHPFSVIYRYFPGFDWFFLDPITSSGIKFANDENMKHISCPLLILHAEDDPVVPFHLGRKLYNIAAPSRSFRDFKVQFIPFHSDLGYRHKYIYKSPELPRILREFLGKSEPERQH

[3] = biological target: T3, Fatty-acid amide hydrolase 1 (Mus musculus) (UniProt O08914); assay: Displacement of FP-rhodamine from FAAH in mouse brain membrane fraction preincubated for 30 mins followed by FP-rhodhamine addition for 10 mins by Activity-Based Protein Profiling analysis; assay type: cell membranes; conditions: time 40.0 min
T3 sequence (whole entry): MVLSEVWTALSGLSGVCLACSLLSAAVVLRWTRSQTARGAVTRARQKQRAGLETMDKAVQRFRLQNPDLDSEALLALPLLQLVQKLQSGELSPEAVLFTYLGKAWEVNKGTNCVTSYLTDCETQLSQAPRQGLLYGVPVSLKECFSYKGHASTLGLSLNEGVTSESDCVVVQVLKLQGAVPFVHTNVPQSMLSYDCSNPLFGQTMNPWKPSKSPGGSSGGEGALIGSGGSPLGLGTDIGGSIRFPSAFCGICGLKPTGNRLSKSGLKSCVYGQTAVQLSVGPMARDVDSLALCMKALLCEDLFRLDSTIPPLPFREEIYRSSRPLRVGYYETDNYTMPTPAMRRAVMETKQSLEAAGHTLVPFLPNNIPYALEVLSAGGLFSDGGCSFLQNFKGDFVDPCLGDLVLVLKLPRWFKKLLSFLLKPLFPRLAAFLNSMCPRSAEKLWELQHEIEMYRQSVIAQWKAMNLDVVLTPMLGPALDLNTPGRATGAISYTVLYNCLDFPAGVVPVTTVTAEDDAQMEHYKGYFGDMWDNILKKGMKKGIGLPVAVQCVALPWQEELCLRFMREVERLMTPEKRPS

[4] = biological target: T4, Monoacylglycerol lipase ABHD6 (Mus musculus) (UniProt Q8R2Y0); assay: Displacement of FP-rhodamine from ABHD6 in mouse brain membrane fraction preincubated for 30 mins followed by FP-rhodhamine addition for 10 mins by Activity-Based Protein Profiling analysis; assay type: cell membranes; conditions: time 40.0 min
T4 sequence (whole entry): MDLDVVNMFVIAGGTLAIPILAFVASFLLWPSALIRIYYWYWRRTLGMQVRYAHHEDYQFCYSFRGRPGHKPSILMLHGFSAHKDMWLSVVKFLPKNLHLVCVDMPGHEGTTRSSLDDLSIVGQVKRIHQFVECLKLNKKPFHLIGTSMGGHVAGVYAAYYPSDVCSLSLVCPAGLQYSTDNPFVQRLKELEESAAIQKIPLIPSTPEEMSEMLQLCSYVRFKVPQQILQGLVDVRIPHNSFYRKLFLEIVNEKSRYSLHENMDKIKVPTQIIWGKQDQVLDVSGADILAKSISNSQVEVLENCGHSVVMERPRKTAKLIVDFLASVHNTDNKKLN

[5] = biological target: CaV1.2 (voltage-dependent L-type calcium channel subunit alpha-1C) (Homo sapiens, UniProt Q13936); assay: Inhibition of human CaV1.2 at 10 uM
hERG (KCNH2) = hERG (KCNH2) (Homo sapiens, UniProt Q12809); assay: Inhibition of human ERG at 10 uM; assay type: toxicity
[6] = Lipophilicity, logD of the compound by shake flask method; assay type: physicochemical; conditions: octanol/water
[7] = biological target: T5, Monoglyceride lipase (Rattus norvegicus) (UniProt Q8R431); assay: Binding affinity to MAGL in rat hippocampus incubated for 1 hr in presence of MAGL inhibitor, (1-(4-fluorophenyl)-1H-indol-5-yl)(3-(4-(pyrimidin-2-yl)piperazin-1-yl)azetidin-1-yl)methanone by autoradiography; assay type: tissue-based; conditions: tested as the 18F-labelled form
T5 sequence (whole entry): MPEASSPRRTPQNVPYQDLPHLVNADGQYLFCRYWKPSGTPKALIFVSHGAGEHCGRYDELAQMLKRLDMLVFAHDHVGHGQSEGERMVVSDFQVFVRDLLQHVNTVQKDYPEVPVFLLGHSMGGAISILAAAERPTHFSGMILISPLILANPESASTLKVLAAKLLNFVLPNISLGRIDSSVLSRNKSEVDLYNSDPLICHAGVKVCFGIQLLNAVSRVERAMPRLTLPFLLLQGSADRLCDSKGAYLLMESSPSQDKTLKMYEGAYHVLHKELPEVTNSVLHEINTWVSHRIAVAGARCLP

[8] = biological target: T5, Monoglyceride lipase (Rattus norvegicus); assay: Binding affinity to MAGL in rat cortex incubated for 1 hr in presence of MAGL inhibitor, (1-(4-fluorophenyl)-1H-indol-5-yl)(3-(4-(pyrimidin-2-yl)piperazin-1-yl)azetidin-1-yl)methanone by autoradiography; assay type: tissue-based; conditions: tested as the 18F-labelled form
[9] = biological target: T5, Monoglyceride lipase (Rattus norvegicus); assay: Binding affinity to MAGL in rat thalamus incubated for 1 hr in presence of MAGL inhibitor, (1-(4-fluorophenyl)-1H-indol-5-yl)(3-(4-(pyrimidin-2-yl)piperazin-1-yl)azetidin-1-yl)methanone by autoradiography; assay type: tissue-based; conditions: tested as the 18F-labelled form
[10] = biological target: T5, Monoglyceride lipase (Rattus norvegicus); assay: Binding affinity to MAGL in rat striatum incubated for 1 hr in presence of MAGL inhibitor, (1-(4-fluorophenyl)-1H-indol-5-yl)(3-(4-(pyrimidin-2-yl)piperazin-1-yl)azetidin-1-yl)methanone by autoradiography; assay type: tissue-based; conditions: tested as the 18F-labelled form
[11] = biological target: T5, Monoglyceride lipase (Rattus norvegicus); assay: Binding affinity to MAGL in rat cerebellum incubated for 1 hr in presence of MAGL inhibitor, (1-(4-fluorophenyl)-1H-indol-5-yl)(3-(4-(pyrimidin-2-yl)piperazin-1-yl)azetidin-1-yl)methanone by autoradiography; assay type: tissue-based; conditions: tested as the 18F-labelled form
[12] = biological target: T6, Monoglyceride lipase (Mus musculus) (UniProt O35678); conditions: Brain, Membrane, dose 50.0 nM, time 35-210 min
T6 sequence (whole entry): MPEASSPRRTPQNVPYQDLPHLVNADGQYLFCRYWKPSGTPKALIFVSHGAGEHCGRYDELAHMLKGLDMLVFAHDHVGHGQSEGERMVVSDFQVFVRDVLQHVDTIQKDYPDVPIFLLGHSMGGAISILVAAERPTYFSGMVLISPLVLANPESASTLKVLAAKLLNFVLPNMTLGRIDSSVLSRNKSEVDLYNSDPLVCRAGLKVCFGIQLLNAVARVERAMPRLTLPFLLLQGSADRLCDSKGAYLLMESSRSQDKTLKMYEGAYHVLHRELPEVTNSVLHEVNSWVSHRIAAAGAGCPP

[13] = biological target: T6, Monoglyceride lipase (Mus musculus); assay: Irreversible inhibition of MAGL in mouse brain membrane fraction assessed as enzyme recovery by measuring FP-rhodamine reactivity at 50 nM preincubated for 30 mins followed by FP-rhodamine challenge for 5 to 180 mins by Activity-Based Protein Profiling analysis; assay type: cell membranes; conditions: time 35-210 min

hERG (KCNH2), sequence (Q12809 whole entry): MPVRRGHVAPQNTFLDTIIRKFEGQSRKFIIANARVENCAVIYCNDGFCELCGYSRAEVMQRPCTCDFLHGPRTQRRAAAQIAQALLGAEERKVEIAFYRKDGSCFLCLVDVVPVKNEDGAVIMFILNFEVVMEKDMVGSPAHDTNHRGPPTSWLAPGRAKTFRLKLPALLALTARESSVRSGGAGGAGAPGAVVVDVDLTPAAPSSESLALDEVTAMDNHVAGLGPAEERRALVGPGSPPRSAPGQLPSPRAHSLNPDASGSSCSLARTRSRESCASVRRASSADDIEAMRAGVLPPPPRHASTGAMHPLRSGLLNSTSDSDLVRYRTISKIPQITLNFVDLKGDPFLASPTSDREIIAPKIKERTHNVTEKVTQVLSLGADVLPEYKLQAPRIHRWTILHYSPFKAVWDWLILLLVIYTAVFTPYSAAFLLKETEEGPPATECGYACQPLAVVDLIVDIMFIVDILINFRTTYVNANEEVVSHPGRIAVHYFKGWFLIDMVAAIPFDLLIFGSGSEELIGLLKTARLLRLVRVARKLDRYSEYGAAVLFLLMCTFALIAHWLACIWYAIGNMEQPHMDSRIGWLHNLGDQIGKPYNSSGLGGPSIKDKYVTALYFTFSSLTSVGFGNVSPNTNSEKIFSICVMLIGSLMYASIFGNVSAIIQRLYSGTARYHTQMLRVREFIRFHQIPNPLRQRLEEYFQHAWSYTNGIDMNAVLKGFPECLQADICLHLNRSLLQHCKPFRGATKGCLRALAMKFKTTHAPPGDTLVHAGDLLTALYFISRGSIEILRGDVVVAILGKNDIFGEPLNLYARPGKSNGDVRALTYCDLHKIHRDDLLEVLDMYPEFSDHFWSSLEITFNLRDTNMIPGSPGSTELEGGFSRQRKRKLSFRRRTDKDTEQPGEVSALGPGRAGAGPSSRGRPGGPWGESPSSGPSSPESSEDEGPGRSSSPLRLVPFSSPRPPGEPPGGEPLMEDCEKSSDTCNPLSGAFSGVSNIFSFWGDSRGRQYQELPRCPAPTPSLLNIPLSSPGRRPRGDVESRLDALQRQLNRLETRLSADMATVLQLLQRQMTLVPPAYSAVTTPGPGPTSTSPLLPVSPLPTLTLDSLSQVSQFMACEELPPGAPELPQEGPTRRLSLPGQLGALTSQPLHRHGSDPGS
CaV1.2 (voltage-dependent L-type calcium channel subunit alpha-1C), sequence (Q13936 whole entry): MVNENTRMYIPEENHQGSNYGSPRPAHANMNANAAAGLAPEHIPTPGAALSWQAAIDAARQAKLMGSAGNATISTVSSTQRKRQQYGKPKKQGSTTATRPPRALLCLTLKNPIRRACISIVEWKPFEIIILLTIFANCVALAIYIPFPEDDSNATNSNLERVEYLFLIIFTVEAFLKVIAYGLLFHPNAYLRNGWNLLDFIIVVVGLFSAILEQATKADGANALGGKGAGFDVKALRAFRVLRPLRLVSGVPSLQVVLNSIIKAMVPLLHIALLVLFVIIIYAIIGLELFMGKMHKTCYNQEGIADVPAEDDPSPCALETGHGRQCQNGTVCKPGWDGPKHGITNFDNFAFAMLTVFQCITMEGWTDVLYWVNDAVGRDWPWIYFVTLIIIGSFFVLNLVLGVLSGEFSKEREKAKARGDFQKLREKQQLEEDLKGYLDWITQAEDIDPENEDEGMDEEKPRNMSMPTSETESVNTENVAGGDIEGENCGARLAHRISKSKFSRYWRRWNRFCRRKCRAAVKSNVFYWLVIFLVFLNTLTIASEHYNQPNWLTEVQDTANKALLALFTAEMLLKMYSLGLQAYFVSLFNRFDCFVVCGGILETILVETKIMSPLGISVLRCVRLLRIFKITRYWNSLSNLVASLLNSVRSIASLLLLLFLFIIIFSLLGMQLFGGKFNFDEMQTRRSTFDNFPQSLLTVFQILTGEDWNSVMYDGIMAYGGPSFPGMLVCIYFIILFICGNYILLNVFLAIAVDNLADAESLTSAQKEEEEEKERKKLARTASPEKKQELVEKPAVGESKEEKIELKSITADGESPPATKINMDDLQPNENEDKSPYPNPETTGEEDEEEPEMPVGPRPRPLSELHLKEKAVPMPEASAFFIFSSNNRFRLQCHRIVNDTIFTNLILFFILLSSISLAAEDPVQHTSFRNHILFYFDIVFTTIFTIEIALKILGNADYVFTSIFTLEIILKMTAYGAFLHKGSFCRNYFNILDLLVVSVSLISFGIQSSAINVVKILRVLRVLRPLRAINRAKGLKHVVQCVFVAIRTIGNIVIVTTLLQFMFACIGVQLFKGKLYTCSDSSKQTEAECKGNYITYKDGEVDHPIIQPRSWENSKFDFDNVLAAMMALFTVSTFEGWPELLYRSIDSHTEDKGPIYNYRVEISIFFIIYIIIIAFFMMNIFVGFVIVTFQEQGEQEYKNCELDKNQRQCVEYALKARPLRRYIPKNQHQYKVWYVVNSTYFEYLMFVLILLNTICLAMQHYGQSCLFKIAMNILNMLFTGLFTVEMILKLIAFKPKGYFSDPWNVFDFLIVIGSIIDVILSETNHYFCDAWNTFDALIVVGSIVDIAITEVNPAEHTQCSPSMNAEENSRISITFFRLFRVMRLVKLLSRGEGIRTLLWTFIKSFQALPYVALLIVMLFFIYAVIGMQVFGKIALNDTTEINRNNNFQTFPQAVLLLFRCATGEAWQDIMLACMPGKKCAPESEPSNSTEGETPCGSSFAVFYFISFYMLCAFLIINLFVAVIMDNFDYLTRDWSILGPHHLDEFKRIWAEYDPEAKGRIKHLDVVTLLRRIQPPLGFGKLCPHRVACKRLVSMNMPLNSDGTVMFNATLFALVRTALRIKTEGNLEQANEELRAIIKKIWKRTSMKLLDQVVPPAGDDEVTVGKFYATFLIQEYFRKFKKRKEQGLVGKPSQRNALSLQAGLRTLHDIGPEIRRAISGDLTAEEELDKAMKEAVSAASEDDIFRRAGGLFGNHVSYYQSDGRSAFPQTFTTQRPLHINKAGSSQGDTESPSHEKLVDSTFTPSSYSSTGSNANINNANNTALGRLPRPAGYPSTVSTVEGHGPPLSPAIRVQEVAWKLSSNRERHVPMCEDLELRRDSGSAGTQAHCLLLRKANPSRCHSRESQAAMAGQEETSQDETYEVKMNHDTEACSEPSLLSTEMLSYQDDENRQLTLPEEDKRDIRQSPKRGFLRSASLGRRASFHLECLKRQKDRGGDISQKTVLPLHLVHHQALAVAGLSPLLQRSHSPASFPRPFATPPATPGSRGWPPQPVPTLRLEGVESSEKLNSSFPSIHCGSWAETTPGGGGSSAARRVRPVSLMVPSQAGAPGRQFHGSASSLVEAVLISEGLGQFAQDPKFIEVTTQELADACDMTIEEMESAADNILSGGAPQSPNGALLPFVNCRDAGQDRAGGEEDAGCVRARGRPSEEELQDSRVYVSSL

inhibition [13]	SMILES	inhibition [1]	inhibition [2]	inhibition [3]	inhibition [4]	inhibition at 10 µM [5]	inhibition at 10 µM (hERG (KCNH2))	logD [6]	Activity [7]	Activity [8]	Activity [9]	Activity [10]	Activity [11]	inhibition [12]
–	O=C(c1ccc2c(ccn2-c2ccc(F)cc2)c1)N1CC(N2CCN(c3ncccn3)CC2)C1	inactive	inactive	inactive	inactive	< 50%	< 50%	3.68	inactive	inactive	inactive	inactive	inactive	Active
Active	O=C(ON1C(=O)CCC1=O)N1CCN(C(c2ccc(Cl)cc2)c2ccc(Cl)cc2)CC1	–	–	–	–	–	–	–	–	–	–	–	–	–

Source: ChEMBL document CHEMBL5226342, “Novel Reversible-Binding PET Ligands for Imaging Monoacylglycerol Lipase Based on the Piperazinyl Azetidine Scaffold” (J Med Chem, 2021)
